Read-outs that look alike come from different tables or passages of the source.
Assays:
MLL1 Complex = MLL1 Complex (Homo sapiens, UniProt Q03164); test: Methyltransferase inhibition panel: MLL1 Complex; format: biochemical
Procedure: (§1) The ability of ETP69 to inhibit methyltransferases was tested.

NSD2 = molecular target: T1, NSD2 (Homo sapiens, UniProt O96028); test: Methyltransferase inhibition panel: NSD2; format: biochemical
T1 sequence (O96028 1-1365): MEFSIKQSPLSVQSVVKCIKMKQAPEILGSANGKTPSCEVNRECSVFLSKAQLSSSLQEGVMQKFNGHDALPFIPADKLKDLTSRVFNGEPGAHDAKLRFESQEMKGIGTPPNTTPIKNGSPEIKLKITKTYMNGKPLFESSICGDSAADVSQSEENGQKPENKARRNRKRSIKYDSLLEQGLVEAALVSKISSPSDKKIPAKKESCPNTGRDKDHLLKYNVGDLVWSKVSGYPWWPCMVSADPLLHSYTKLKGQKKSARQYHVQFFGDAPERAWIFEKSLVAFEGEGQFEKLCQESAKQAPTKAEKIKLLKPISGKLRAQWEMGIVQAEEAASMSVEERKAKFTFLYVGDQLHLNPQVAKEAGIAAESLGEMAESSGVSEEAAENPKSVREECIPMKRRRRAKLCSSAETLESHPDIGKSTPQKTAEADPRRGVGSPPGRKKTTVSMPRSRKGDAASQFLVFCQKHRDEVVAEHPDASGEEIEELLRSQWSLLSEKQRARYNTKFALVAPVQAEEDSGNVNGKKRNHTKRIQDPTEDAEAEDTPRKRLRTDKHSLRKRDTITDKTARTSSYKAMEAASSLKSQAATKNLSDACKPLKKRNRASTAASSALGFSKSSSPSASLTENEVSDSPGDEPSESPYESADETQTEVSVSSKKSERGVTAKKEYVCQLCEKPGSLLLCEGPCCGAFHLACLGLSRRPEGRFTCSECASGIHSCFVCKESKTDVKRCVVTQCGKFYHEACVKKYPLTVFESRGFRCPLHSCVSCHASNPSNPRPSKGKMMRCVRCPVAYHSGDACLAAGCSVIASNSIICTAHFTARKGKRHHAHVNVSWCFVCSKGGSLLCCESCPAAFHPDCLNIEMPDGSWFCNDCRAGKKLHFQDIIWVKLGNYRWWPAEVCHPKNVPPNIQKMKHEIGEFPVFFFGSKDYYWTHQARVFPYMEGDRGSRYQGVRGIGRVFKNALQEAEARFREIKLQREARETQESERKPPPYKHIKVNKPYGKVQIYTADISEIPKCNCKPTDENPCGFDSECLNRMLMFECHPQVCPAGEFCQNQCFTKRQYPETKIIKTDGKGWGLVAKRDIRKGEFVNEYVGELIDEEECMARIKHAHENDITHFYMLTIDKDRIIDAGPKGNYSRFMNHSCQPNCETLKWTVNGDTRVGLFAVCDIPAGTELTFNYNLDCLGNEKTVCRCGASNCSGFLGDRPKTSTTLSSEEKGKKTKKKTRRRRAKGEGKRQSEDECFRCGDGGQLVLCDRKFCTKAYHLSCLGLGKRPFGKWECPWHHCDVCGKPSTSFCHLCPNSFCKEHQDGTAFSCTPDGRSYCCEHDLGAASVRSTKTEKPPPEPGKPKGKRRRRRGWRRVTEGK
Procedure: as §1

BDNF and VGF pathways = test: Gene expression in treated mice (BDNF and VGF pathways); format: in vivo; conditions: mice treated with ETP69 vs DMSO
Procedure: Gene expression was measured in mice treated with ETP69 and DMSO. As depicted in FIG. 3, genes in the BDNF and VGF pathways were activated. These pathways are consistent with protective neurotrophic support. This pathway correlates with reduced H3K9me3 and improved cognition. FIG. 4A depicts genes in the BDNF pathway inhibited (left) and activated (right) by ETP69. The inactivated genes are quantified in FIGS. 4B-4F. The activated genes are quantified in FIGS. 4G-4M.

[1] = NT1721 20 μM, substrate Nucleosomes 0.05 mg/mL

Sequence of MLL1 Complex (Q03164 3745-3969): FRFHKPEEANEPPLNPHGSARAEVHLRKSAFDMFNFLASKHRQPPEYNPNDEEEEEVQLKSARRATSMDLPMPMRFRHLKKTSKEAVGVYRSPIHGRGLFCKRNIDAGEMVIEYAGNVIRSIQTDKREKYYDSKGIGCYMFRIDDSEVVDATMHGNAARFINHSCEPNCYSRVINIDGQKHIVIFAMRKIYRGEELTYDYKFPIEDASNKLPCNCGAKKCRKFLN
Sequence of MLL1 Complex (Q9UBL3 96-628, further chain): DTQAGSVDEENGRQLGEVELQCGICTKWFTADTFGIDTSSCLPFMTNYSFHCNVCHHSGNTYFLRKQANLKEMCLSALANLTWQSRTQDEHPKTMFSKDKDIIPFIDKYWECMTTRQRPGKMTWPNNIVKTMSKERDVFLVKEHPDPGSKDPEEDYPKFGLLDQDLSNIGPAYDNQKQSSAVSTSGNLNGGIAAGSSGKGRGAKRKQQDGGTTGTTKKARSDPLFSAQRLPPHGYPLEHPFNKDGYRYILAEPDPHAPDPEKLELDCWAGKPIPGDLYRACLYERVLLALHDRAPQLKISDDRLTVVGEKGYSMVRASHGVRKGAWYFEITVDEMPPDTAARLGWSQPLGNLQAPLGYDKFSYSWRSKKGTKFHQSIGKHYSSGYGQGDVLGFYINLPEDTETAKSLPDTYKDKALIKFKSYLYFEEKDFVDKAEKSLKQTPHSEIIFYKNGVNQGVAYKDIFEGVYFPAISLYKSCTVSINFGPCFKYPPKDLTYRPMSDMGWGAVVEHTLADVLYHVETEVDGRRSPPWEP
Sequence of MLL1 Complex (Q9C005 whole entry, further chain): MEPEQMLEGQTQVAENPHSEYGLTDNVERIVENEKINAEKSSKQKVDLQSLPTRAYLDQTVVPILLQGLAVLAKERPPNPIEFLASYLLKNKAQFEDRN
Sequence of MLL1 Complex (Q15291 whole entry, further chain): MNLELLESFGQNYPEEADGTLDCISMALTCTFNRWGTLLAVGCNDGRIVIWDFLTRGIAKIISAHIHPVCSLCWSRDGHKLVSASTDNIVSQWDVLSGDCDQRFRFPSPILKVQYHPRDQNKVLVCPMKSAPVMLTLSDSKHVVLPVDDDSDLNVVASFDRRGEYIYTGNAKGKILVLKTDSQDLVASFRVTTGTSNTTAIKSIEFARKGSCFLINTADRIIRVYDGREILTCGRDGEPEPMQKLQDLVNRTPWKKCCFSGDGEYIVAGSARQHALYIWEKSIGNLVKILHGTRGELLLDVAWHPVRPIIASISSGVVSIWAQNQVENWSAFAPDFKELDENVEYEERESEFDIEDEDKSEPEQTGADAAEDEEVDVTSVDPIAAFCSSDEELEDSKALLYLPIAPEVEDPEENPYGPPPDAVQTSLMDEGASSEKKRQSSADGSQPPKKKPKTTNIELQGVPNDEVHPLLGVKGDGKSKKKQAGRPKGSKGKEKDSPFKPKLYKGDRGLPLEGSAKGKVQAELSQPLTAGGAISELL

CN1C(=O)[C@@]23C[C@](C)(C#N)[C@H](c4ccc5c(c4)OCO5)N2C(=O)[C@]1(C)SS3 (racemic) [ETP69, Rac-(3S,6S,7S,8aS)-6-(benzo[d][1,3]dioxol-5-yl)-2,3,7-trimethyl-1,4-dioxohexahydro-6H-3,8a-epidithiopyrrolo[1,2-a]pyrazine-7-carbonitrile]
Enzyme % Activity (relative to DMSO controls) Data 1 (MLL1 Complex; [1]): 5.08%
Enzyme % Activity (relative to DMSO controls) Data 2 (MLL1 Complex; [1]): 5.33%
inhibition relative to DMSO controls (MLL1 Complex; summary of Table 1): at least 7500
remaining activity at 20 µM (NSD2; read-out: Enzyme % Activity (relative to DMSO controls) Data 1): 20%
remaining activity at 20 µM (NSD2; read-out: Enzyme % Activity (relative to DMSO controls) Data 2): 19.9%
inhibition relative to DMSO controls (NSD2; summary of Table 1): at least 7500
genes in the BDNF and VGF pathways (BDNF and VGF pathways): activated

From patent publication US20260207585A1, “METHODS AND COMPOSITIONS FOR THE TREATMENT OF PARKINSON'S DISEASE, HUNTINGTON'S DISEASE, AMYOTROPHIC LATERAL SCLEROSIS, AND LEARNING DISORDERS” (Cedars-Sinai Medical Center, priority 2022, published 2026)
